Earlier results in patent US20210087552A1, “Methods, Compositions, and Systems for Classification of Genetic Variants of Unknown Significance” (Laboratory Corporation of America Holdings, priority 2019, published 2021).

Legend:
[1] = system: individual mutations in ABL1, ASXL1, BRAF, CDKN2A, CEBPA, CSF3R, DNMT3A, EZH2, FLT3, IDH1, IDH2, JAK2, KIT, KMT2A, KRAS, NF1, NPM1, NRAS, PDGFRA, PML PTPN11 …
[2] = system: individual mutations in ABL1, ASXL1, BRAF, CSF3R, DNMT3A, EZH2, FLT3, IDH2, JAK2, KIT, KRAS, NF1, NRAS, PDGFRA, PML PTPN11, and TET2

Row | Structure (SMILES) | mutation associated with resistance to chemotherapeutic agent [1] | mutation associated with resistance to agent [2]
1 | Nc1ccn([C@@H]2O[C@H](CO)[C@@H](O)[C@@H]2O)c(=O)n1 [cytarabine] | resistance | 
2 | CC(C)(C)c1nc(-c2cccc(NS(=O)(=O)c3c(F)cccc3F)c2F)c(-c2ccnc(N)n2)s1 [dabrafenib] | resistance | 
3 | Cc1cn(-c2cc(NC(=O)c3ccc(C)c(Nc4nccc(-c5cccnc5)n4)c3)cc(C(F)(F)F)c2)cn1 [nilotinib] |  | resistance
